Like-named read-outs stand apart in the source and are kept apart here. Residues, ends and D or L forms follow the SMILES beside them.
Tests used:
[1] = test system: B. megaterium; test: Bactericidal or bacteriostatic effect, spreading on Petri dishes and counting colonies; assay type: cell-based; details: colonies counted after 24 h of incubation, Yes/No
Experimental: (§1) The bactericidal or bacteriostatic effect of the peptide was determined by spreading on Petri dishes and counting the colonies present after 24 h of incubation.

[2] = test system: Bacillus subtilis; test: as above; assay type: cell-based; details: colonies counted after 24 h of incubation, Yes/No
Experimental: as §1

[3] = test system: Escherichia coli SBS 363; test: as above; assay type: cell-based; details: colonies counted after 24 h of incubation, Yes/No
Experimental: as §1

[4] = test system: Klebsiella pneumoniae; test: as above; assay type: cell-based; details: colonies counted after 24 h of incubation, Yes/No
Experimental: as §1

[5] = test system: Micrococcus luteus; test: as above; assay type: cell-based; details: colonies counted after 24 h of incubation, Yes/No
Experimental: as §1

[6] = test system: Nocardia asteroides; test: as above; assay type: cell-based; details: colonies counted after 24 h of incubation, Yes/No
Experimental: as §1

[7] = test system: Pseudomonas aeruginosa ATCC 82118; test: as above; assay type: cell-based; details: colonies counted after 24 h of incubation, Yes/No
Experimental: as §1

[8] = test system: S. haemolyticus; test: as above; assay type: cell-based; details: colonies counted after 24 h of incubation, Yes/No
Experimental: as §1

[9] = test system: Salmonella typhimurium; test: as above; assay type: cell-based; details: colonies counted after 24 h of incubation, Yes/No
Experimental: as §1

[10] = test system: Staphylococcus aureus; test: as above; assay type: cell-based; details: colonies counted after 24 h of incubation, Yes/No
Experimental: as §1

[11] = test system: V. anguillarum ATCC 19264; test: as above; assay type: cell-based; details: colonies counted after 24 h of incubation, Yes/No
Experimental: as §1

[12] = test system: Vibrio metshnikovii NCTC 8483; test: as above; assay type: cell-based; details: colonies counted after 24 h of incubation, Yes/No
Experimental: as §1

[13] = test system: B. cereus ATCC 11778; test: as above; assay type: cell-based, Bacillus cereus; details: colonies counted after 24 h of incubation, Yes/No
Experimental: as §1

[14] = test system: S. saprophyticus; test: as above; assay type: cell-based, Staphylococcus saprophyticus; details: colonies counted after 24 h of incubation, Yes/No
Experimental: as §1

[15] = test system: E. coli 1106; test: as above; assay type: cell-based, Escherichia coli; details: colonies counted after 24 h of incubation, Yes/No
Experimental: as §1

[16] = test system: Escherichia coli 1106; assay type: cell-based
Experimental: (§2) Strains of microorganisms capable of growing at such pH values were selected in advance: these were Pseudomonas aeruginosa and Escherichia coli 1106 (Gram-negative bacteria). The tests of antimicrobial activity were performed in liquid medium in microtitration plates (for the detailed protocol see example 2.4 as well as Hétru and Bulet, 1997). The pH of the liquid medium used was adjusted with hydrochloric acid for each test.
(§3) Two strains of Gram-negative bacteria (Pseudomonas aeruginosa and Escherichia coli 1106) capable of growing in the range of pH values to be tested were selected. The range of pH values tested corresponded to the pH variations observed in the well preserved stomach content of the incubating king penguin (Thouzeau et al., 2003).

[17] = test system: Pseudomonas aeruginosa; assay type: cell-based
Experimental: as §2, §3

[18] = test system: Aspergillus fumigatus; test: Effect on growth of Aspergillus fumigatus, observation with electronic microscope; assay type: cell-based; details: incubation with 6 μM of spheniscin-2
Text: (FIG. 9A) Control growth: the aspergillar heads terminated by the spores are clearly visible (X 400). […] The effect of spheniscin-2 on A. fumigatus is consequently not of the direct fungicidal type on the spores but is manifested by a halt of growth by inhibition of the reproduction of the fungus because there is no longer formation of aspergillar heads, structures implicated in the reproduction/proliferation process of this fungus.

Structure (SMILES): CC[C@H](C)[C@@H]1NC(=O)[C@@H]2CCCN2C(=O)[C@H]([C@@H](C)CC)NC(=O)[C@H](CO)NC(=O)[C@@H]2CCCN2C(=O)[C@H](Cc2ccccc2)NC(=O)[C@H](CCCNC(=N)N)NC(=O)[C@@H]2CSSC[C@@H](C(=O)N[C@@H](CCCNC(=N)N)C(=O)N[C@@H](CCCNC(=N)N)C(=O)N[C@H](C(=O)N[C@@H](Cc3c[nH]c4ccccc34)C(=O)O)C(C)C)NC(=O)[C@@H]3CSSC[C@H](NC(=O)[C@H](CC(C)C)NC(=O)CNC(=O)[C@H](Cc4ccccc4)NC(=O)[C@@H](N)CO)C(=O)N[C@@H](CCCNC(=N)N)C(=O)N[C@@H](CC(C)C)C(=O)N[C@@H](CCCNC(=N)N)C(=O)N[C@@H](CCCNC(=N)N)C(=O)NCC(=O)N[C@@H](Cc4ccccc4)C(=O)N[C@@H](CSSC[C@H](NC(=O)[C@H](CCCNC(=N)N)NC(=O)CNC1=O)C(=O)N[C@@H](CO)C(=O)N[C@@H](CCCNC(=N)N)C(=O)N[C@@H](Cc1ccccc1)C(=O)N[C@@H](C(C)C)C(=O)N[C@@H](CCC(N)=O)C(=O)N3)C(=O)N[C@@H](C)C(=O)N[C@@H](CCCNC(=N)N)C(=O)NCC(=O)N[C@@H](CCCNC(=N)N)C(=O)N2 [spheniscin-2] (HELM PEPTIDE1{S.F.G.L.C.R.L.R.R.G.F.C.A.R.G.R.C.R.F.P.S.I.P.I.G.R.C.S.R.F.V.Q.C.C.R.R.V.W}$PEPTIDE1,PEPTIDE1,5:R3-33:R3|PEPTIDE1,PEPTIDE1,12:R3-27:R3|PEPTIDE1,PEPTIDE1,17:R3-34:R3$$$V2.0; N-terminus and C-terminus assumed)
- Bactericidal effect of spheniscin-2 [1]: Yes
- Bactericidal effect of spheniscin-2 [2]: Yes
- Bactericidal effect of spheniscin-2 [3]: No
- Bactericidal effect of spheniscin-2 [4]: No
- Bactericidal effect of spheniscin-2 [5]: Yes
- Bactericidal effect of spheniscin-2 [6]: Yes
- Bactericidal effect of spheniscin-2 [7]: No
- Bactericidal effect of spheniscin-2 [8]: Yes
- Bactericidal effect of spheniscin-2 [9]: No
- Bactericidal effect of spheniscin-2 [10]: Yes
- Bactericidal effect of spheniscin-2 [11]: No
- Bactericidal effect of spheniscin-2 [12]: Yes
- Bactericidal effect of spheniscin-2 [13]: Yes
- Bactericidal effect of spheniscin-2 [14]: No
- Bactericidal effect of spheniscin-2 [15]: Yes
- MIC (μM) after 48 h of incubation ([16]; pH 4.2): 6 to 12 µM
- MIC (μM) after 48 h of incubation ([16]; pH 5.2): 25 to 50 µM
- MIC (μM) after 48 h of incubation ([16]; pH 6.1): 6 to 12 µM
- MIC (μM) after 48 h of incubation ([16]; pH 7.2): 1.5 to 3 µM
- MIC (μM) after 48 h of incubation ([17]; pH 4.2): >100 µM
- MIC (μM) after 48 h of incubation ([17]; pH 7.2): 6 to 12 µM
- Effect on the growth of Aspergillus fumigatus (FIG. 9B) [18]: disappearance of the aspergillar heads

Source: US7384911B2, “Peptides having antimicrobial properties and compositions containing them, notably for the preservation of foodstuffs” (priority 2002, dated 2008)
